# Measured values taken from patent US12209079B2 (GENERAL INCORPORATED ASSOCIATION PHARMA VALLEY PROJECT …, priority 2017, dated 2025).
# Legend:
# Assay type in all cases: in vivo, mouse
# [1] = system: subcutaneous CT-26CL25 syngeneic graft of large intestine cancer; test: Drug efficacy test, combined use of compound 1 and oxaliplatin, mice with subcutaneous CT-26CL25 syngeneic graft (Test Example 3); details: 40 mg/kg oral twice a day, combined with oxaliplatin 10 mg/kg i.v.; Balb/c mice; FIG. 2
# Experimental: Drug Efficacy Test on Combined Use of Compound 1 and Oxaliplatin Using Mice with Subcutaneous CT-26CL25 Syngeneic Graft of Large Intestine Cancer
# 5×10^5 cells of syngeneic large intestine cancer cell line CT26CL25 were subcutaneously transplanted to each of 8-week-old female Balb/c mice. The mice were divided into 4 groups each involving 8 individuals 10 days later when the average tumor size was 185 mm^3. The oral administration (solvent for oral administration and 40 mg/kg compound 1 were administered twice a day at a 5-hour interval from days 1 to 5 and days 8 to 12) and intravenous administration (5% glucose solution and 10 mg/kg oxaliplatin were administered once a day on days 1 and 8) of each agent were started. Then, the major axis and minor axis of subcutaneous tumor were measured three times a week using calipers, and a mean and standard error of the mean of the ratios of the calculated volumes to the volumes at the administration start day in each group were plotted. The calculation expression was Volume (mm^3)=[Width^2 (mm^2)×Length (mm)]/2. Compound 1 was dissolved in a solvent for oral administration of DMSO:PEG400:PBS=5:20:75.
# ∘: the solvent for oral administration and the 5% glucose solution, •: the solvent for oral administration and oxaliplatin, Δ: compound 1 and the 5% glucose solution, and ▴: compound 1 and oxaliplatin.
# [2] = system: subcutaneous CT-26WT syngeneic graft of large intestine cancer; test: Drug efficacy test, combined use with anti-PD-1 antibody, mice with subcutaneous CT-26WT syngeneic graft (Test Example 2); details: 40 mg/kg oral twice a day, combined with anti-PD-1 antibody 200 μg/individual i.p.; Balb/c mice; FIG. 1
# Experimental: Drug Efficacy Test on Combined Use of IDO/TDO Inhibitor and Anti-PD-1 Antibody Using Mice with Subcutaneous CT-26WT Syngeneic Graft of Large Intestine Cancer
# 5×10^5 cells of syngeneic large intestine cancer cell line CT26WT were subcutaneously transplanted to each of 6-week-old female Balb/c mice. The mice were divided into 6 groups each involving 6 to 8 individuals 11 days later when the average tumor size was 212 mm^3. The oral administration (solvent for oral administration and 40 mg/kg each of epacadostat and compound 1 were administered twice a day at a 5-hour interval from days 1 to 5, days 8 to 12, and days 15 to 19) and intraperitoneal administration (PBS and 200 μg/individual of an anti-PD1 antibody were administered once a day on days 1, 4, 8, 11, 15, and 18) of each agent were started. Then, the major axis and minor axis of subcutaneous tumor were measured three times a week using calipers, and a mean and standard error of the mean of the calculated volumes in each group were plotted. The calculation expression was Volume (mm^3)=[Width^2 (mm^2)×Length (mm)]/2. The oral administration agent was dissolved in a solvent for oral administration of DMSO:PEG400:PBS=5:20:75. […]
# [3] = system: subcutaneous CT-26WT syngeneic graft of large intestine cancer; test: Drug efficacy test, combined use of compound 29 or 38 and anti-PD1 antibody, mice with subcutaneous CT-26WT syngeneic graft (Test Example 6); details: 40 mg/kg oral twice a day, combined with anti-PD1 antibody 200 μg/individual i.p.; Balb/c mice; FIG. 5
# Experimental: Drug Efficacy Test on Combined Use of Compound 29 or 38 and Anti-PD1 Antibody Using Mice with Subcutaneous CT-26WT Syngeneic Graft of Large Intestine Cancer
# 5×10^5 cells of syngeneic large intestine cancer cell line CT26WT were subcutaneously transplanted to each of 6-week-old female Balb/c mice. The mice were divided into 6 groups each involving 6 individuals 10 days later when the average tumor size was 250 mm^3. The oral administration (solvent for oral administration and 40 mg/kg each of compounds 29 and 38 were administered twice a day at a 5-hour interval from days 1 to 5 and days 8 to 12) and intraperitoneal administration (PBS and 200 μg/individual of an anti-PD1 antibody were administered once a day on days 1 and 8) of each agent were started. Then, the major axis and minor axis of subcutaneous tumor were measured three times a week using calipers, and a mean and standard error of the mean of the calculated volumes in each group were plotted. The calculation expression was Volume (mm^3)=[[…]×Length (mm)]/2. Compound 29 or 38 was suspended in 0.5% methyl cellulose as a solvent for oral administration. […]
# [4] = system: subcutaneous CT-26WT syngeneic graft of large intestine cancer; test: Drug efficacy test, combined use of compound 103 and anti-PD1 antibody, mice with subcutaneous CT-26WT syngeneic graft (Test Example 7); details: 40 mg/kg oral twice a day, combined with anti-PD1 antibody 200 μg/individual i.p.; Balb/c mice; FIG. 6
# Experimental: Drug Efficacy Test on Combined Use of Compound 103 and Anti-PD1 Antibody Using Mice with Subcutaneous CT-26WT Syngeneic Graft of Large Intestine Cancer
# 5×10^5 cells of syngeneic large intestine cancer cell line CT26WT were subcutaneously transplanted to each of 6-week-old female Balb/c mice. The mice were divided into 3 groups each involving 8 individuals 10 days later when the average tumor size was 176 mm^3. The oral administration (40 mg/kg of compound 103 was administered twice a day at a 5-hour interval from days 1 to 5 and days 8 to 12), intravenous administration (5% glucose solution was administered once a day on days 1 and 8) and intraperitoneal administration (PBS and 200 μg/individual of an anti-PD1 antibody were administered once a day on days 1 and 8) of each agent were started. Then, the major axis and minor axis of subcutaneous tumor were measured three times a week using calipers, and a mean and standard error of the mean of the calculated volumes in each group were plotted. The calculation expression was Volume (mm^3)=[Width^2 (mm^2)×Length (mm)]/2. Compound 103 was suspended in 0.5% methyl cellulose.
# • with the solid line: the 5% glucose solution and PBS, X with the dotted line: the 5% glucose solution and the anti-PD1 antibody, and ∘ with the solid line: compound 103 and the anti-PD1 antibody.
smiles,measurement,setting,value
"Cl.Cl.N=C(N)SCc1ccccc1CSC(=N)N [Compound 1, 1,2-phenylenebis(methylene) dicarbamimidothioate dihydrochloride]",tumor growth (ratio of tumor volume to start day),[1],can suppress tumor growth
same,tumor growth (tumor volume),[2],can suppress tumor growth
"c1ccc(CSC2=NCN(CC3CCCCC3)CN2)c(CSC2=NCN(CC3CCCCC3)CN2)c1 [Compound 29, 1,2-bis(((5-(cyclohexylmethyl)-1,4,5,6-tetrahydro-1,3,5-triazin-2-yl)thio)methyl)benzene]",tumor growth (tumor volume),[3],can suppress tumor growth
"Br.N#Cc1ccc(CNC(=O)c2cc(Br)ccc2CSC(=N)N)cc1 [Compound 103, 4-Bromo-2-((4-cyanobenzyl)carbamoyl)benzyl carbamimidothioate hydrobromide]",tumor growth (tumor volume),[4],can suppress tumor growth
